Toxic doses and inconclusive results are not listed. No stated cut-off is given here; in the data, active means T/C of 150% or more; inactive means T/C below 125%.
Test system: L1210 leukemia ip in BDF1 mice, survival T/C
Test: NCI In Vivo Anticancer Drug Screen. Data for tumor model L1210 Leukemia (intraperitoneal) in B6D2F1 (BDF1) mice
Settings: higher = longer survival
Method in brief: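 Ratio derived from survival: compound-dosed mice over vehicle-dosed mice, all bearing a transplantable tumor.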

[1] = endpoint: mean survival time, dose: 50.0 mg/kg/injection, schedule: Q01DX009 (ip), vehicle: Klucel (hydroxypropylcellulose) (HPC)
[2] = endpoint: mean survival time, dose: 100.0 mg/kg/injection, schedule: Q01DX009 (ip), vehicle: Klucel (hydroxypropylcellulose) (HPC)
[3] = endpoint: mean survival time, dose: 200.0 mg/kg/injection, schedule: Q01DX009 (ip), vehicle: Klucel (hydroxypropylcellulose) (HPC)
[4] = endpoint: mean survival time, dose: 100.0 mg/kg/injection, schedule: Q01DX009 (ip), vehicle: saline
[5] = endpoint: mean survival time, dose: 100.0 mg/kg/injection, schedule: Q01DX001 (ip), vehicle: saline
[6] = endpoint: mean survival time, dose: 200.0 mg/kg/injection, schedule: Q01DX001 (ip), vehicle: saline
[7] = endpoint: mean survival time, dose: 400.0 mg/kg/injection, schedule: Q01DX001 (ip), vehicle: saline
[8] = endpoint: mean survival time, dose: 100.0 mg/kg/injection, schedule: Q01DX001 (ip), vehicle: saline with Tween-80
[9] = endpoint: mean survival time, dose: 200.0 mg/kg/injection, schedule: Q01DX001 (ip), vehicle: saline with Tween-80
[10] = endpoint: mean survival time, dose: 100.0 mg/kg/injection, schedule: Q04DX003 (ip), vehicle: Klucel (hydroxypropylcellulose) (HPC)
[11] = endpoint: mean survival time, dose: 100.0 mg/kg/injection, schedule: Q04DX003 (ip), vehicle: saline
[12] = endpoint: mean survival time, dose: 200.0 mg/kg/injection, schedule: Q04DX003 (ip), vehicle: Klucel (hydroxypropylcellulose) (HPC)
[13] = endpoint: mean survival time, dose: 200.0 mg/kg/injection, schedule: Q04DX003 (ip), vehicle: saline
[14] = endpoint: mean survival time, dose: 400.0 mg/kg/injection, schedule: Q04DX003 (ip), vehicle: Klucel (hydroxypropylcellulose) (HPC)
[15] = endpoint: mean survival time, dose: 400.0 mg/kg/injection, schedule: Q04DX003 (ip), vehicle: saline

Measured: T/C

CSc1nc(C)c(Cl)c(SC)n1
inactive: [1] 101 % of control | [2] 117 % of control | [3] 97 % of control

COc1cc2ccncc2cc1OCc1ccccc1
inactive: endpoint: mean survival time, dose: 25.0 mg/kg/injection, schedule: Q01DX009 (ip), vehicle: saline 104 % of control | endpoint: mean survival time, dose: 50.0 mg/kg/injection, schedule: Q01DX009 (ip), vehicle: saline 96 % of control | [4] 102 % of control

CC[Si](C)(C)N1CC1
inactive: endpoint: mean survival time, dose: 12.5 mg/kg/injection, schedule: Q01DX001 (ip), vehicle: carboxymethylcellulose (CMC) 106 % of control | endpoint: mean survival time, dose: 25.0 mg/kg/injection, schedule: Q01DX001 (ip), vehicle: carboxymethylcellulose (CMC) 101 % of control | endpoint: mean survival time, dose: 50.0 mg/kg/injection, schedule: Q04DX003 (ip), vehicle: carboxymethylcellulose (CMC) 94 % of control | endpoint: mean survival time, dose: 100.0 mg/kg/injection, schedule: Q04DX003 (ip), vehicle: carboxymethylcellulose (CMC) 101 % of control | endpoint: mean survival time, dose: 200.0 mg/kg/injection, schedule: Q04DX003 (ip), vehicle: carboxymethylcellulose (CMC) 101 % of control

CC1CCc2cc3c(cc2C1=O)sc1ccccc13 (stereo unspecified)
inactive: [5] 108 % of control | [6] 105 % of control | [7] 89 % of control

Cc1ccc2c(c1)SCc1c-2[nH]c2ccccc12
inactive: endpoint: mean survival time, dose: 100.0 mg/kg/injection, schedule: Q04DX003 (ip), vehicle: saline with Tween-80 103 % of control | endpoint: mean survival time, dose: 200.0 mg/kg/injection, schedule: Q04DX003 (ip), vehicle: saline with Tween-80 100 % of control | endpoint: mean survival time, dose: 400.0 mg/kg/injection, schedule: Q04DX003 (ip), vehicle: saline with Tween-80 108 % of control

CC(=O)OC1OC2COC(C)(C)OCC2C(OC(C)=O)C1OC(C)=O (stereo unspecified)
inactive: [8] 96 % of control | [9] 104 % of control

CC1COC(C(C)C)O1 (stereo unspecified)
inactive: endpoint: mean survival time, dose: 50.0 mg/kg/injection, schedule: Q01DX009 (ip), vehicle: acetone 90 % of control | endpoint: mean survival time, dose: 100.0 mg/kg/injection, schedule: Q01DX009 (ip), vehicle: acetone 97 % of control | endpoint: mean survival time, dose: 100.0 mg/kg/injection, schedule: Q04DX003 (ip), vehicle: acetone 95 % of control | endpoint: mean survival time, dose: 200.0 mg/kg/injection, schedule: Q01DX009 (ip), vehicle: acetone 95 % of control | endpoint: mean survival time, dose: 200.0 mg/kg/injection, schedule: Q04DX003 (ip), vehicle: acetone 103 % of control | endpoint: mean survival time, dose: 400.0 mg/kg/injection, schedule: Q04DX003 (ip), vehicle: acetone 90 % of control

CCOC(=O)CC(N)C(=O)OCC (stereo unspecified)
inactive: [4] 98 % of control | [10] 99 % of control | [11] 88 % of control | endpoint: mean survival time, dose: 200.0 mg/kg/injection, schedule: Q01DX009 (ip), vehicle: saline 95 % of control | [12] 100 % of control | [13] 93 % of control | endpoint: mean survival time, dose: 400.0 mg/kg/injection, schedule: Q01DX009 (ip), vehicle: saline 97 % of control | [14] 87 % of control | [15] 102 % of control

Nc1ccc(N=Nc2c(Br)cc(S(N)(=O)=O)cc2Br)c(N)n1
inactive: [5] 102 % of control | [6] 100 % of control | [7] 94 % of control

COc1ccc(C=Nc2ccc(Cl)cc2)cc1
inactive: [2] 96 % of control | [10] 102 % of control | [3] 97 % of control | [12] 104 % of control | [14] 100 % of control

CN=C(NC#N)NCCSCc1nc[nH]c1C
inactive: endpoint: median survival time, dose: 12.0 mg/kg/injection, schedule: Q01DX009 (ip), vehicle: Klucel (hydroxypropylcellulose) (HPC) 100 % of control | endpoint: median survival time, dose: 25.0 mg/kg/injection, schedule: Q01DX009 (ip), vehicle: Klucel (hydroxypropylcellulose) (HPC) 101 % of control | endpoint: median survival time, dose: 50.0 mg/kg/injection, schedule: Q01DX009 (ip), vehicle: Klucel (hydroxypropylcellulose) (HPC) 106 % of control | endpoint: median survival time, dose: 100.0 mg/kg/injection, schedule: Q01DX009 (ip), vehicle: Klucel (hydroxypropylcellulose) (HPC) 106 % of control | endpoint: median survival time, dose: 200.0 mg/kg/injection, schedule: Q01DX009 (ip), vehicle: Klucel (hydroxypropylcellulose) (HPC) 108 % of control | endpoint: median survival time, dose: 400.0 mg/kg/injection, schedule: Q01DX009 (ip), vehicle: Klucel (hydroxypropylcellulose) (HPC) 104 % of control

COC(=O)N1C2C=CC(C2)N1C(=O)OC
inactive: endpoint: mean survival time, dose: 50.0 mg/kg/injection, schedule: Q01DX009 (ip), vehicle: DMSO 96 % of control | endpoint: mean survival time, dose: 100.0 mg/kg/injection, schedule: Q01DX009 (ip), vehicle: DMSO 93 % of control | endpoint: mean survival time, dose: 100.0 mg/kg/injection, schedule: Q04DX003 (ip), vehicle: DMSO 97 % of control | endpoint: mean survival time, dose: 200.0 mg/kg/injection, schedule: Q04DX003 (ip), vehicle: DMSO 95 % of control

CN(C)C=Nc1ccc(F)cc1
inactive: endpoint: mean survival time, dose: 50.0 mg/kg/injection, schedule: Q01DX001 (ip), vehicle: carboxymethylcellulose (CMC) 94 % of control | endpoint: mean survival time, dose: 100.0 mg/kg/injection, schedule: Q01DX001 (ip), vehicle: carboxymethylcellulose (CMC) 102 % of control | endpoint: mean survival time, dose: 200.0 mg/kg/injection, schedule: Q01DX001 (ip), vehicle: carboxymethylcellulose (CMC) 104 % of control | endpoint: mean survival time, dose: 400.0 mg/kg/injection, schedule: Q01DX001 (ip), vehicle: carboxymethylcellulose (CMC) 105 % of control

S=C(Cc1cc(Cl)ccc1Cl)N1CCOCC1
inactive: endpoint: mean survival time, dose: 100.0 mg/kg/injection, schedule: Q04DX002 (ip), vehicle: Klucel (hydroxypropylcellulose) (HPC) 95 % of control | endpoint: mean survival time, dose: 200.0 mg/kg/injection, schedule: Q04DX002 (ip), vehicle: Klucel (hydroxypropylcellulose) (HPC) 109 % of control | endpoint: mean survival time, dose: 400.0 mg/kg/injection, schedule: Q04DX002 (ip), vehicle: Klucel (hydroxypropylcellulose) (HPC) 98 % of control

CC12CCCCC1C=CC(=O)C2 (stereo unspecified)
inactive: endpoint: mean survival time, dose: 75.0 mg/kg/injection, schedule: Q01DX001 (ip), vehicle: other 89 % of control | endpoint: mean survival time, dose: 150.0 mg/kg/injection, schedule: Q01DX001 (ip), vehicle: other 94 % of control

CNC(=O)n1ncnc1N
inactive: [11] 94 % of control | [13] 96 % of control | [15] 97 % of control

Clc1nc2nc3n(c2nc1Cl)CCC3(Br)Br
inactive: endpoint: mean survival time, dose: 12.5 mg/kg/injection, schedule: Q01DX009 (ip), vehicle: other 112 % of control | endpoint: mean survival time, dose: 25.0 mg/kg/injection, schedule: Q01DX009 (ip), vehicle: other 114 % of control | endpoint: mean survival time, dose: 50.0 mg/kg/injection, schedule: Q01DX009 (ip), vehicle: other 112 % of control | endpoint: mean survival time, dose: 100.0 mg/kg/injection, schedule: Q01DX009 (ip), vehicle: other 110 % of control

c1ccc(-c2ccccc2NC2=NCCO2)cc1
inactive: endpoint: mean survival time, dose: 12.5 mg/kg/injection, schedule: Q01DX009 (ip), vehicle: saline with Tween-80 100 % of control | endpoint: mean survival time, dose: 25.0 mg/kg/injection, schedule: Q01DX009 (ip), vehicle: saline with Tween-80 94 % of control | endpoint: mean survival time, dose: 50.0 mg/kg/injection, schedule: Q01DX009 (ip), vehicle: saline with Tween-80 94 % of control

CN(C)C1CCCCC1
inactive: endpoint: mean survival time, dose: 25.0 mg/kg/injection, schedule: Q01DX009 (ip), vehicle: Klucel (hydroxypropylcellulose) (HPC) 105 % of control | [1] 100 % of control | [2] 114 % of control | [10] 117 % of control | [12] 101 % of control | [14] 96 % of control

CCCCOc1ccc(OC(=O)Nc2cc(Cl)ccc2OC)cc1
inactive: [2] 105 % of control | [10] 96 % of control | [3] 97 % of control | [12] 97 % of control | endpoint: mean survival time, dose: 400.0 mg/kg/injection, schedule: Q01DX009 (ip), vehicle: Klucel (hydroxypropylcellulose) (HPC) 113 % of control | [14] 97 % of control

CCC1(O)CC(OC2CC(N(C)C)C(OC3CC(O)C(O)C(C)O3)C(C)O2)c2c(cc3c(c2O)C(=O)c2c(O)ccc(O)c2C3=O)C1C(=O)OC (stereo unspecified)
inactive: endpoint: mean survival time, dose: 1.6 mg/kg/injection, schedule: Q01DX001 (ip), vehicle: saline 108 % of control | endpoint: mean survival time, dose: 3.2 mg/kg/injection, schedule: Q01DX001 (ip), vehicle: saline 104 % of control | endpoint: mean survival time, dose: 6.4 mg/kg/injection, schedule: Q01DX001 (ip), vehicle: saline 105 % of control

COC(c1ccccc1)(c1ccccc1)c1ccccc1
inactive: endpoint: mean survival time, dose: 50.0 mg/kg/injection, schedule: Q01DX001 (ip), vehicle: saline 91 % of control | [5] 103 % of control | [6] 101 % of control | [7] 95 % of control

O=[N+]([O-])c1cccc(-c2nc3ncncc3[nH]2)c1
inactive: endpoint: mean survival time, dose: 50.0 mg/kg/injection, schedule: Q01DX001 (ip), vehicle: saline with Tween-80 102 % of control | [8] 101 % of control | [9] 98 % of control

CCOC(=O)c1cnc(C)nc1Nc1ccccc1C
inactive: [10] 88 % of control | [12] 98 % of control | [14] 105 % of control

Source: PubChem BioAssay AID248 (DTP/NCI, 2004)
